Assay results: patent publication US20220017863A1, “SIRT2-ABLATED CHIMERIC T CELLS” (H. Lee Moffitt Cancer Center and Research Institute, Inc., priority 2019, published 2022)
“Also recorded” adds a separate entry of the source.

Legend:
[1] = system: TILs from B16F10 tumor nodules; assay: Seahorse OCR of TILs freshly isolated from B16F10 tumor nodules with Etomoxir; format: cell-based, mouse
Protocol: Lymphocytes from subcutaneous tumors were isolated by dicing the tissues followed by enzymatic digestion in PBS containing collagenase type 4 (2 mg/ml, Worthington Biochemical) and DNase I (0.25 mg/ml, Sigma-Aldrich) for 45 min with occasional shaking at 37° C. Cell suspensions were then twice filtered through 100 μm and 40 μm cell strainers (Thermo Fisher Scientific) to obtain single-cell suspension followed by a PBS wash and red blood cell lysis using RBC Lysis Buffer (Biolegend). TILs were finally isolated by density gradient centrifugation using Percoll (GE Healthcare) and were further purified using CD3c MicroBeads Kit™ (Miltenyi Biotec) according to the manufacturer's instructions. T cell purity was greater than 90%. Fresh TILs were used directly for phenotypic and metabolic analyses or were cultured in complete RPMI medium for functional assays.
(§1) To measure the contribution of glycolysis, glutaminolysis and FAO as fuels for mitochondrial metabolism, OCR and ECAR were measured under basal conditions and in response to sequential injections of vehicle, UK5099 (2 μM), BPTES (3 μM) or Etomoxir (4 μM) inhibitors and then 1 μM oligomycin, 1 μM FCCP (Carbonyl cyanide 4-trifluoromethoxyphenylhydrazone) and 0.5 μM rotenone/antimycin A.

[2] = system: CD3-stimulated CD3+ splenic T cells; assay: Seahorse OCR of activated CD3+ splenic T cells with mitochondrial fuel pathway inhibitors; format: cell-based, mouse; conditions: for maximal respiration: activated Sirt2−/− CD3+ T cells; for maximal respiration (in response of FCCP): activated WT CD3+ T cells
Protocol: (§2) Extracellular acidification rate (ECAR) and oxygen consumption rate (OCR) were measured using the Seahorse XF analyzer (Agilent technologies). Glycolysis Stress Test (GST), glycolytic rate assay (GRA) and mitochondrial stress test (MST) were purchased from Agilent technologies and performed according to the kit manufacturer's instructions.
(§3) The day of the assay, 2×10^5 activated T cells were plated in Cell-Tak (Corning)-coated XF96 plates in XF media (XF RPMI Medium pH 7.4 containing 2 mM L-glutamine only for GST or supplemented with 10 mM glucose, 2 mM L-glutamine and 1 mM sodium pyruvate for GRA and MST, all from Agilent technologies) via centrifugation to ensure cell attachment. Cells were equilibrated for 1 hr in a non-CO2 incubator before starting the assay.
as §1

human CD3+ T cells [3] = assay: IFN-γ ELISPOT on human CD3+ T cells from healthy donors; format: cell-based; conditions: inhibitor vs vehicle, 48 hr, listed as TM
human CD3+ T cells [4] = assay: Seahorse extracellular flux analysis of CD3-stimulated human CD3+ T cells from healthy donors; format: cell-based; conditions: anti-CD3 plus inhibitor vs vehicle, 48 hr
Protocol: (§4) Human peripheral blood mononuclear cells (PBMC) were obtained from healthy donors by density gradient centrifugation using Ficoll-Paque™ PLUS Media (GE Healthcare). CD3^+ lymphocytes were negatively enriched using human Pan T cell isolation Kit™ (Miltenyi Biotec).
Extracellular acidification rates (ECAR) were measured using the Seahorse XF analyzer (Agilent). Glycolysis Stress Test (GST) and glycolytic rate assay (GRA) were performed according to kit manufacturer's instructions.
as §3, with “test,” for “and MST,”, “hour” for “hr”
For GST, ECAR was measured under basal conditions and in response to 10 mM glucose, 1 μM oligomycin and 50 mM 2-DG successively to calculate basal glycolytic rate, glycolytic capacity (in response to oligomycin), and glycolytic reserve (glycolytic capacity−basal rate). For GRA, ECAR was measured under basal conditions and in response to 0.5 μM rotenone+0.5 μM antimycin A and 50 mM 2-DG successively to calculate basal glycolysis and compensatory glycolysis (in response to rotenone+antimycin A). Results were normalized to total protein quantified using Pierce™ BCA Protein Assay Kit (ThermoFisher Scientific).
Human peripheral blood mononuclear cells (PBMC) were obtained from healthy donors by density gradient centrifugation using Ficoll-Paque™ PLUS Media (GE Healthcare). CD3^+ lymphocytes were negatively enriched using human Pan T cell isolation Kit™ (Miltenyi Biotec). […].
as §2, with “instructions. […]” for “instructions.”
For GST, ECAR and OCR were measured under basal conditions and in response to 10 mM glucose, 1 μM oligomycin and 50 mM 2-DG successively to calculate basal glycolytic rate, glycolytic capacity (in response to oligomycin), and glycolytic reserve (glycolytic capacity basal rate).
For GRA, ECAR and OCR were measured under basal conditions and in response to 0.5 μM roteone/antimycin A and 50 mM 2-DG successively to calculate basal glycolysis and compensatory glycolysis (in response to rotenone/antimycin A).

[5] = target: T1, Sirt2 deacetylase activity (Homo sapiens, UniProt Q8IXJ6); assay: Western blot of acetylated α-tubulin in human CD3+ enriched T cells; format: cell-based; conditions: 48 hr, listed as TM
T1 construct: endogenous in cells; host or cells: human CD3+ T cells enriched from PBMC of healthy donors
T1 sequence (Q8IXJ6 1-389): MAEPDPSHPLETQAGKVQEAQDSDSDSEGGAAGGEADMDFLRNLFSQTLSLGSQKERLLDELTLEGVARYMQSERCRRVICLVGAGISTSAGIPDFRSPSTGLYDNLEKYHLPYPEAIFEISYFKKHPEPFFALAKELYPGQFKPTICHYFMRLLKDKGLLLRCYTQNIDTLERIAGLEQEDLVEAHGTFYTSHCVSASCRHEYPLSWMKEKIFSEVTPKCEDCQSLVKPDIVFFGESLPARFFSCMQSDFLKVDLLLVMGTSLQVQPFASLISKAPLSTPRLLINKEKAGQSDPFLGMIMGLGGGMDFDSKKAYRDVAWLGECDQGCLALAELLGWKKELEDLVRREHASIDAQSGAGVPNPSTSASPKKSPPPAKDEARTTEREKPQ
Protocol: as §4
Whole cell lysates were prepared using lysis buffer (Pierce RIPA buffer, ThermoFisher Scientific) supplemented with cOmplete™ Protease Inhibitor Cocktail and PhosSTOP Phosphatase Inhibitor (Roche Applied Science).
Cell lysates (20 ug) or IP samples were loaded onto 10% SDS-PAGE and separated by electrophoresis followed by semi-dry transfer into polyvinylidene fluoride membranes (Immun-Blot PVDF membrane, Bio-Rad) using Trans-Blot Turbo transfer system (Bio-Rad). After transfer, the membranes were blocked at room temperature with Tris-buffered saline (TBS) containing 0.05% Tween-20 (TBST) and 5% (w/v) milk for 1 h and then incubated overnight at 4° C. with a specific primary antibody (indicated below). […] After washing 3 times with TBST, bound antibodies were detected by chemiluminescence using the Pierce™ ECL Western Blotting Substrate and the Super Signal West Femto Maximum Sensitivity Substrate kits (ThermoFisher Scientific). […]

Pmel T cells = assay: IFN-γ ELISPOT on gp100-stimulated Pmel T cells; format: cell-based, mouse; conditions: gp100-stimulated Sirt2KO (Sirt2−/−) Pmel T cells
Protocol: Spleens and/or Lymph nodes (LN) were collected from WT, Sirt2KO, Pmel/WT, Pmel/Sirt2KO mice and processed into single-cell suspensions. CD3^+, CD4^+ and CD8^+ T cells were negatively enriched using Mouse Pan T cell, CD4^+ T cell and CD8^+ T cell isolation Kits™ respectively according to the manufacturers' instructions. The purity of the isolated cells was confirmed by flow cytometry (>95%). Purified T cells were cultured in completed RPMI 1640 medium (ThermoFisher Scientific) supplemented with 10% (vol/vol) Fetal bovine serum (FBS, Biowest) and 1% (vol/vol) penicillin/streptomycin (P/S, Thomas Scientific Inc). […]
The number of IFN-γ producing cells was evaluated in an ELISPOT assay. […] After washing steps and biotinylated anti-IFN-γ antibody (R4-6A2, ThermoFisher Scientific)+Streptavidin-HRP (BD Bioscience) labeling, spots were detected using AEC Substrate Kit (BD Biosciences) and counted using an AID ELISPOT Reader System (Autoimmun Diagnostika GmbH). […]
The number of IFN-γ producing cells was evaluated in an ELISPOT assay. […] After washing steps and successive biotinylated anti-IFN-γ antibody (R4-6A2, Mabtech, Inc.) and Streptavidin-HRP (BD Bioscience) labeling, spots were detected using AEC Substrate Kit (BD Biosciences) and counted using an AID ELISPOT Reader System (Autoimmun Diagnostika GmbH).

**Q.** With CCOC(=O)[C@@]1(CCCCCCOc2ccc(Cl)cc2)CO1 [Etomoxir] as the compound, how does the maximal respiration ([1]; Sirt2−/− TILs) read?
**A.** remained resistant

**Q.** What about the maximal respiration ([1]; WT TILs) of the same compound?
**A.** decreases

**Q.** What about the maximal respiration [2] of the same compound?
**A.** insensitive

**Q.** And the “maximal respiration (in response of FCCP)” value [2]?
**A.** significantly suppressed

**Q.** What does the source list for CCCCCCCCCCCCCC(=S)NCCCC[C@H](NC(=O)OCc1ccccc1)C(=O)Nc1ccccc1 [Thiomyristoyl]?
**A.** IFN-γ production (effector function) (human CD3+ T cells [3]): increased; also recorded: augments; OxPhos (human CD3+ T cells [4]): increased; aerobic glycolysis (ECAR/PER) (human CD3+ T cells [4]; listed as TM): increased; also recorded: augments; capacity to block Sirt2 deacetylase activity, monitored by acetylated α-tubulin levels [5]: confirmed; also recorded: validated

**Q.** N#C/C(=C\c1cn(-c2ccccc2)c2ccccc12)C(=O)O [UK5099] was tested. Which maximal respiration [2] did it give?
**A.** insensitive

**Q.** What about the “maximal respiration (in response of FCCP)” value [2] of the same compound?
**A.** significantly suppressed

**Q.** Which maximal respiration [2] does the source give for O=C(Cc1ccccc1)Nc1nnc(CCSCCc2nnc(NC(=O)Cc3ccccc3)s2)s1 [BPTES] here?
**A.** insensitive

**Q.** What about the “maximal respiration (in response of FCCP)” value [2] of the same compound?
**A.** significantly suppressed

**Q.** Which IFN-γ release (Pmel T cells) does the source give for CC[C@H]1/C=C/C=C/C[C@@H](C)[C@H](O)[C@@](C)(O)C(=O)[C@@H](C)[C@H](O)[C@@H](C)C(=O)[C@@H](C)[C@H](O)[C@@H](C)/C=C/C(=O)O[C@@H]2[C@H](C)[C@H](CC1)O[C@]1(CC[C@H](C)[C@H](C[C@@H](C)O)O1)[C@H]2C [oligomycin] here?
**A.** suppressed
